These results are taken from patent USRE48711E1, “Apoptosis signal-regulating kinase inhibitors” (Gilead Sciences, Inc., priority 2009, dated 2021).

Chain of ASK1 (Apoptosis Signal-Regulating Kinase 1) (Q99683 649-946): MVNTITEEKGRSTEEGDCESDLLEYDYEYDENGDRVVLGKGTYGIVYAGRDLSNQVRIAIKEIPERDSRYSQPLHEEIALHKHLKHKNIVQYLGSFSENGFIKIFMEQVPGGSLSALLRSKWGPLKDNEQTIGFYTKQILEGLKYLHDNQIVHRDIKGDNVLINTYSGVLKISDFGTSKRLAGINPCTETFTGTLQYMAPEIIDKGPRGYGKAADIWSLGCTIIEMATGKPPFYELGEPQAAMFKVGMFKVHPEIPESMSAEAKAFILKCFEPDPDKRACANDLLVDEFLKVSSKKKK

This test has as its target ASK1 (Apoptosis Signal-Regulating Kinase 1) (Homo sapiens (Human), UniProt Q99683). The experiment in a line: ASK1 (Apoptosis Signal-Regulating Kinase 1) TR-FRET Kinase Assay (Biochemical IC50). To be noted: TR-FRET, biotin-MBP substrate, 20 min pre-incubation, ATP added as 300 μM solution. (Time-resolved FRET reads energy transfer from a long-lived donor to a nearby acceptor.)
In general, IC50 refers to the midpoint of a concentration-inhibition curve. A higher IC50 goes with weaker potency. Compound `CC(C)(O)c1ccc(-c2ccnc(C(=O)Nc3cccc(-c4nncn4C4CC4)c3)c2)cn1` [Example 165, N-(3-(4-cyclopropyl-4H-1,2,4-triazol-3-yl)phenyl)-6-(2-hydroxypropan-2-yl)-3,4′-bipyridine-2′-carboxamide] came in with an IC50 of 5 nM.
In turn, `O=C(Nc1cccc(-c2nncn2C2CC2)c1)c1cc(-c2ccc(OCC(F)(F)F)nc2)ccn1` [Example 56, N-(3-(4-cyclopropyl-4H-1,2,4-triazol-3-yl)phenyl)-6-(2,2,2-trifluoroethoxy)-3,4′-bipyridine-2′-carboxamide] registered an IC50 of 69 nM.
`Cn1cnnc1-c1cccc(NC(=O)c2cc(N3CCOCC3)ccn2)c1` [Example 30, N-(3-(4-methyl-4H-1,2,4-triazol-3-yl)phenyl)-4-morpholinopicolinamide] returned an IC50 of 335 nM.
Take `C[C@@H](c1ccccc1)n1cnnc1-c1cccc(NC(=O)c2cccc(-n3cnc(C4CC4)c3)c2)n1` [Example 217, (S)-3-(4-cyclopropyl-1H-imidazol-1-yl)-N-(6-(4-(1-phenylethyl)-4H-1,2,4-triazol-3-yl)pyridin-2-yl)benzamide]: it took 14 nM to reach half-maximal inhibition (IC50).
Then `CN1CCC(c2ccc(-c3ccnc(C(=O)Nc4cccc(-c5nncn5C5CC5)c4)c3)cn2)C1=O` (stereo not shown) [Example 110, N-(3-(4-cyclopropyl-4H-1,2,4-triazol-3-yl)phenyl)-6-(1-methyl-2-oxopyrrolidin-3-yl)-3,4′-bipyridine-2′-carboxamide], with 8 nM; and `O=C(Nc1cccc(-c2nncn2C2CC2)c1)c1cc(-c2cncc3ccccc23)ccn1` [Example 89, N-(3-(4-cyclopropyl-4H-1,2,4-triazol-3-yl)phenyl)-4-(isoquinolin-4-yl)picolinamide], with 26 nM; and `COc1ccc(-n2cnc(C3CC3)c2)cc1C(=O)Nc1cccc(-c2nncn2C2CC2)c1` [Example 272, 5-(4-cyclopropyl-1H-imidazol-1-yl)-N-(3-(4-cyclopropyl-4H-1,2,4-triazol-3-yl)phenyl)-2-methoxybenzamide], with 11 nM.
Under `C[C@@H](c1ccccc1)n1cnnc1-c1cccc(NC(=O)c2cc(-c3ccc(C4CC4)nc3)ccn2)c1` [Example 220, (S)-6-cyclopropyl-N-(3-(4-(1-phenylethyl)-4H-1,2,4-triazol-3-yl)phenyl)-3,4′-bipyridine-2′-carboxamide] stands 61 nM; under `O=C(Nc1cccc(-c2nncn2C2CCC2)c1)c1cc(-c2ccc(C3CC3)nc2)ccn1` [Example 221, N-(3-(4-cyclobutyl-4H-1,2,4-triazol-3-yl)phenyl)-6-cyclopropyl-3,4′-bipyridine-2′-carboxamide], 31 nM.
Under `Cc1cnc(C(=O)Nc2cccc(-c3nncn3C3CC3)n2)cc1-c1ccc(C2CC2)nc1` [Example 215, 6-cyclopropyl-N-(6-(4-cyclopropyl-4H-1,2,4-triazol-3-yl)pyridin-2-yl)-5′-methyl-3,4′-bipyridine-2′-carboxamide] stands 30 nM.
Turning to `CC(C)S(=O)(=O)c1ccc(-c2ccnc(C(=O)Nc3cccc(-c4nncn4C4CC4)c3)c2)cc1` [Example 118, N-(3-(4-cyclopropyl-4H-1,2,4-triazol-3-yl)phenyl)-4-(4-(isopropylsulfonyl)phenyl)picolinamide], the IC50 is 9 nM.
`O=C(Nc1cccc(-c2nncn2C2CC2)c1)c1cc(-n2cnc3c2CCNC3C(F)(F)F)ccn1` (stereo not shown) [Example 194, N-(3-(4-cyclopropyl-4H-1,2,4-triazol-3-yl)phenyl)-4-(4-(trifluoromethyl)-4,5,6,7-tetrahydro-1H-imidazo[4,5-c]pyridin-1-yl)picolinamide]: the half-inhibitory concentration (IC50) was 12 nM.
`COc1ccc(-c2ccc(C3CC3)nc2)cc1C(=O)Nc1cccc(-c2nncn2C2CC2)c1` [Example 271, N-(3-(4-cyclopropyl-4H-1,2,4-triazol-3-yl)phenyl)-5-(6-cyclopropylpyridin-3-yl)-2-methoxybenzamide]: half-maximal inhibition (IC50) was put at 24 nM.
